# Source: US9827184B2, “Peelable transparent diamond nail-care coat” (LES FINS NETWORK TECHNOLOGY CO.,LTD., priority 2015, dated 2017)
# Columns and labels:
# Assay in all cases: MTT microplate growth inhibition (MIC50) in MH culture medium
# Assay type in all cases: cell-based
# Conditions in all cases: 96-well plate, 37° C., 24 h, OD 570 nm, unit not given, test concentrations given in μg·ML^−1
# [1] = test system: epidermophyton floccosum
# Procedure: (§1) Bacteria (trichophylon rubrum, trichophyton mentagrophytes and epidermophyton fioccosum) are suspended in an MH culture medium with a dispersion concentration of about 10^5 cfu·ML^−1, and bacterium solution is added onto a 96-well plate (100 μL of the bacterium solution is added in each well); and the culture medium is taken as blank control, DMSO is taken as negative control for replacing a test substance, and itraconazole (Xian-Janssen Pharmaceutical Co., Ltd.) is taken as positive control. […] The 96-well plate is placed in an incubator at 37° C. and cultured for 24 h, then 25 μL of PBS containing 4 mg of MTT per mL is added in each well and cultured for 4 h under the same condition, and 100 μL of SDS lysate (95 mL of tri-distilled water+10 g of SDS+5 mL of isopropanol+0.1 mL of concentrated hydrochloric acid) is added in each well and then cultured for 12 h. An OD value is measured by a microplate reader at 570 nm, and an inhibition percent is calculated as follows: [formula]
# [2] = test system: trichophyton mentagrophytes
# Procedure: as §1
# [3] = test system: trichophyton rubrum
# Procedure: as §1
50% minimum inhibitory concentration (MIC50) for epidermophyton floccosum [1],50% minimum inhibitory concentration (MIC50) for trichophyton mentagrophytes [2],50% minimum inhibitory concentration (MIC50) for trichophyton rubrum [3],SMILES
0.82,0.60,0.63,COc1ccc(-c2cc(=O)c3cc(O)c(OC)c4c3n2OC2OC(C)=C(O)C=C2C4)cc1 (stereo not drawn) [compound of formula I]
0.65,0.70,0.63,CCC(C)n1ncn(-c2ccc(N3CCN(c4ccc(OCC5COC(Cn6cncn6)(c6ccc(Cl)cc6Cl)O5)cc4)CC3)cc2)c1=O (stereo not drawn) [itraconazole]
